What was measured:
Assay in all cases: relative viability (nuclei count vs DMSO), 5 days (fraction); higher = more cells survive
Etoposide + Phenformin = compound: COc1cc([C@@H]2c3cc4c(cc3[C@@H](O[C@@H]3O[C@@H]5CO[C@@H](C)O[C@H]5[C@H](O)[C@H]3O)[C@H]3COC(=O)[C@H]23)OCO4)cc(OC)c1O [Etoposide] + N=C(N)NC(=N)NCCc1ccccc1 [Phenformin] (partner 250 µM)
Summary of the method: (§1)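 Cells from lung cancer lines were seeded into 1536-well plates and, one day later, dosed by pin tool. Treatments were either a single drug or a fixed dose of an anchor drug with five library-drug doses (not always all listed) in √10 steps. After 5 days, nuclei were stained in a one-step fixation (final 0.05% Triton X-100, 1% formaldehyde, 1 ug/ml Hoechst) and counted on 4× images, and relative viability is the treated-to-vehicle nuclei ratio, as the median of duplicate plates.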

Etoposide = compound: COc1cc([C@@H]2c3cc4c(cc3[C@@H](O[C@@H]3O[C@@H]5CO[C@@H](C)O[C@H]5[C@H](O)[C@H]3O)[C@H]3COC(=O)[C@H]23)OCO4)cc(OC)c1O [Etoposide]
Summary of the method: (§2)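 Viability was read as treated-well nuclei divided by vehicle-well nuclei, using the median across plates. Lung cancer cell lines in 1536-well plates were kept overnight at 37 °C, pinned with five √10-spaced library-drug doses, and after 5 days were Hoechst-stained, imaged at 4× and counted in MetaXpress. Plates passed only with control CV below 25% and at least one doubling.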

Bleomycin = compound: CC1=C(N=C(N=C1N)[C@H](CC(=O)N)NC[C@@H](C(=O)N)N)C(=O)N[C@@H]([C@H](C2=CN=CN2)OC3C(C(C(C(O3)CO)O)O)OC4C(C(C(C(O4)CO)O)OC(=O)N)O)C(=O)N[C@H](C)[C@H]([C@H](C)C(=O)N[C@@H]([C@@H](C)O)C(=O)NCCC5=NC(=CS5)C6=NC(=CS6)C(=O)NCCC[S+](C)C)O [Bleomycin]; conditions: main component drawn
Summary of the method: as §2

Bleomycin + Navitoclax = compound: CC1=C(N=C(N=C1N)[C@H](CC(=O)N)NC[C@@H](C(=O)N)N)C(=O)N[C@@H]([C@H](C2=CN=CN2)OC3C(C(C(C(O3)CO)O)O)OC4C(C(C(C(O4)CO)O)OC(=O)N)O)C(=O)N[C@H](C)[C@H]([C@H](C)C(=O)N[C@@H]([C@@H](C)O)C(=O)NCCC5=NC(=CS5)C6=NC(=CS6)C(=O)NCCC[S+](C)C)O [Bleomycin] + CC1(C)CCC(c2ccc(Cl)cc2)=C(CN2CCN(c3ccc(C(=O)NS(=O)(=O)c4ccc(N[C@H](CCN5CCOCC5)CSc5ccccc5)c(S(=O)(=O)C(F)(F)F)c4)cc3)CC2)C1 [Navitoclax] (partner 0.5 µM); conditions: main component drawn
Summary of the method: as §1

Cell Line	relative viability (Etoposide + Phenformin; first compound 0.01 µM)	relative viability (Etoposide + Phenformin; first compound 0.03162 µM)	relative viability (Etoposide + Phenformin; first compound 0.1 µM)	relative viability (Etoposide + Phenformin; first compound 0.3162 µM)	relative viability (Etoposide + Phenformin; first compound 1 µM)	relative viability (Etoposide; 0.01 µM)	relative viability (Etoposide; 0.03162 µM)	relative viability (Etoposide; 0.1 µM)	relative viability (Etoposide; 0.3162 µM)	relative viability (Etoposide; 1 µM)	relative viability (Bleomycin; 0.01 µM)	relative viability (Bleomycin; 0.03162 µM)	relative viability (Bleomycin; 0.1 µM)	relative viability (Bleomycin; 0.3162 µM)	relative viability (Bleomycin; 1 µM)	relative viability (Bleomycin + Navitoclax; first compound 0.01 µM)	relative viability (Bleomycin + Navitoclax; first compound 0.03162 µM)	relative viability (Bleomycin + Navitoclax; first compound 0.1 µM)	relative viability (Bleomycin + Navitoclax; first compound 0.3162 µM)	relative viability (Bleomycin + Navitoclax; first compound 1 µM)
NCI-H522	0.665	0.623	0.535	0.595	0.614	0.977	1.04	0.811	0.928	0.743	0.833	0.79	0.666	0.432	0.345	–	–	–	–	–
HCC-15	0.496	0.526	0.429	0.152	0.132	1.01	1.07	1	0.485	0.182	0.937	0.873	0.879	0.424	0.382	0.656	0.68	0.713	0.378	0.324
A-427	0.362	0.317	0.258	0.213	0.143	0.968	1.12	0.699	0.612	0.237	0.795	0.811	0.748	0.326	0.2	0.844	0.888	0.991	0.787	0.27
NCI-H23	0.822	0.834	0.633	0.392	0.259	1.02	1.03	0.671	0.371	0.212	0.458	0.439	0.304	0.218	0.161	0.47	0.284	0.276	0.155	0.181
NCI-H1734	0.366	0.468	0.324	0.37	0.233	0.979	1.2	0.597	0.676	0.304	0.811	0.743	0.717	0.411	0.287	0.719	0.571	0.518	0.24	0.139
NCI-H2087	0.407	0.508	0.435	0.278	0.143	0.967	1.11	0.978	0.78	0.259	0.822	1.06	0.851	0.257	0.235	0.69	1.04	0.841	0.371	0.158
PC-3 [JPC-3]	0.456	0.453	0.478	0.434	0.374	1.03	1.1	1.07	0.989	0.837	1.01	1.01	0.939	0.73	0.535	0.784	0.957	0.758	0.63	0.511
NCI-H1915	0.38	0.361	0.429	0.346	0.324	1	1.1	0.891	0.889	0.684	0.739	0.74	0.489	0.287	0.165	0.726	0.78	0.732	0.537	0.212
NCI-H1666	0.513	0.571	0.507	0.398	0.363	0.947	0.908	0.818	0.483	0.414	0.781	0.737	0.649	0.474	0.451	0.761	0.579	0.518	0.362	0.324
HCC-366	0.647	0.625	0.327	0.333	0.0669	0.992	1.07	0.769	0.377	0.0702	0.923	0.722	0.591	0.182	0.0724	0.74	0.489	0.268	0.0573	0.0178
SK-MES-1	0.654	0.683	0.582	0.402	0.248	0.978	1.06	0.9	0.587	0.258	0.861	0.885	0.77	0.371	0.262	1.12	0.97	0.736	0.278	0.18
NCI-H727	0.556	0.664	–	0.531	0.437	0.945	1.04	0.586	0.87	0.852	0.891	0.777	0.831	0.391	0.687	0.388	0.339	0.351	0.181	0.286
RERF-LC-KJ	0.414	0.469	0.42	0.36	0.329	0.846	1.06	0.861	0.873	0.653	0.694	0.675	0.591	0.308	0.271	0.54	0.5	0.439	0.227	0.192
NCI-H1623	0.624	0.615	0.388	0.485	0.281	0.859	0.907	0.687	0.818	0.303	0.84	0.936	0.807	0.466	0.469	–	–	–	–	–
